In assay [1] the target is T1, WT apoALAS2 (residues 54–587) (Homo sapiens, UniProt P22557).
T1 construct: His6-SUMO (N, cleaved yes); made in house; host or cells: Escherichia coli BL21-Codon Plus (DE3)-RIL
T1 sequence (P22557 54-587): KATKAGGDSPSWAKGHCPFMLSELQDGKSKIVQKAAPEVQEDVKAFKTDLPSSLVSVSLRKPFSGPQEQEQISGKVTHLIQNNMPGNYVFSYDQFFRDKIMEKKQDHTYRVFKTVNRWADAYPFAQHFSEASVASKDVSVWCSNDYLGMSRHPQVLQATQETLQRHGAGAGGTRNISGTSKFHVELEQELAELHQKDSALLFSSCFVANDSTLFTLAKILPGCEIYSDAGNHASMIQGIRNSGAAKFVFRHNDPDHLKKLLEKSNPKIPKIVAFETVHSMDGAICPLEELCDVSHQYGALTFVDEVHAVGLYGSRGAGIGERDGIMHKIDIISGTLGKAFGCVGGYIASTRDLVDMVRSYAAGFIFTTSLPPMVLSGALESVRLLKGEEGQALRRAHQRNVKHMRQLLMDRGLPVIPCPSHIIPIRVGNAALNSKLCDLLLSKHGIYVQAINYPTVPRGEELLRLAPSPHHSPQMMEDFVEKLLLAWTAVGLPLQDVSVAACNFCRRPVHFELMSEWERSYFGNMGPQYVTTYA
Briefly: Inhibitor competition, apoenzyme reactivation by PLP with or without hemin. Type of assay: biochemical. The following applies: for Vmax / Km: PLP varied; for Km: 95% confidence interval in brackets. The method, then:
(§1) A discontinuous colorimetric activity assay adapted from Shoolingin-Jordan et al. and Bailey et al. was used to measure the enzyme activity ([48], [74]). The reaction was initiated by adding 100 nM purified enzyme to 50 mM potassium phosphate, pH 7.0, 10 mM MgCl2, 1 mM DTT, 100 mM glycine, and 300 μM succinyl-CoA (175 μl total). The reaction was incubated at 37 °C for 15 min and terminated with 100 μl of cold 10% trichloroacetic acid. The precipitated protein was removed by centrifugation for 5 min at 13,000g, and 240 μl of the supernatant was mixed with 240 μl of 1 M sodium acetate, pH 4.6. To derivatize ALA, 20 μl of acetylacetone was added to the mixture and boiled at 100 °C for 10 min. After the sample was cooled for 20 min, 100 μl aliquots were transferred into a clear 96-well plate in triplicate. An equal volume of Ehrlich’s reagent (p-Dimethylaminobenzaldehyde, DMAB) was added to each well, and the absorbance was monitored at 553 nm using a microplate reader (Thermo Fisher Scientific). The peak absorbance value was converted to molar ALA concentration using ε553 = 60,400 M^−1 cm^−1.
For inhibitor competition experiments, the apoenzymes were preincubated with hemin or PLP (0–100 μM) for 15 min at 25 °C in the dark before initiating the reaction. Next, either PLP or hemin (0–100 μM) was titrated into the reactions to measure enzyme activation after hemin inhibition or enzyme inhibition of the PLP-treated apoenzyme, respectively. For succinyl-CoA:hemin competition analyses, the WT holoenzyme was mixed with hemin (0, 25, 50, and 100 μM), followed by the addition of increasing succinyl-CoA concentrations (0, 25, 50, 100, 250, and 500 μM). All experiments were performed with a minimum of three biological replicates, each with three technical replicates. Data were fit using nonlinear regression to generate an agonist dose-response curve (EC50) or an inhibitor dose-response curve (IC50). Lineweaver-Burk analysis was performed using the resulting kinetic parameters (Vmax and KM) in GraphPad Prism 10.

Assay [2] has as its target T2, holoALAS2 ΔN (residues 75–587) (Homo sapiens, UniProt P22557).
T2 construct: a truncation without HRM3 (ΔN, residues 75–587); His6-SUMO (N, cleaved yes); made in house; host or cells: Escherichia coli BL21-Codon Plus (DE3)-RIL
T2 sequence (P22557 75-587): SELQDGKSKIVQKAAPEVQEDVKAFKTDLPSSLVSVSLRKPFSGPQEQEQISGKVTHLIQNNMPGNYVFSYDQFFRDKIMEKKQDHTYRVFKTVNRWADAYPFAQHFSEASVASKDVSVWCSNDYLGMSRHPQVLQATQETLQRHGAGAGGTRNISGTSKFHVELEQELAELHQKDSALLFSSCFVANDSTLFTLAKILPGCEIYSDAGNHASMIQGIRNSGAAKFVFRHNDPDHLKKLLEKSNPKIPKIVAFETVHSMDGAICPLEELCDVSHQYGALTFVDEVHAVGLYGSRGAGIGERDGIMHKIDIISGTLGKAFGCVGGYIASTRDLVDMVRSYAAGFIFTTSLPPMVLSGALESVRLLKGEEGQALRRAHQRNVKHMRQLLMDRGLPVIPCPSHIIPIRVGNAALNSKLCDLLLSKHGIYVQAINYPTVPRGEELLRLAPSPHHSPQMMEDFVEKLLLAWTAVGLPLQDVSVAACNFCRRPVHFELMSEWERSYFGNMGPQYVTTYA
Briefly: Colorimetric ALA release activity assay, hemin inhibition of holoenzyme. Type of assay: biochemical. The method, then:
as §1
Inhibition of enzyme activity was determined by titrating hemin (0.1 μM–60 μM) into the substrate mixture before initiating the reaction upon enzyme addition. Hemin was dissolved in 100% dimethyl sulfoxide (DMSO) (ε403 nm = 170,000 M^−1 cm^−1) and serially diluted in 100% DMSO to prepare stock solutions for each concentration. The final DMSO concentration in the reaction mixture was 2%. All experiments were performed with a minimum of three biological replicates, each with three technical replicates. Data were fitted using nonlinear regression to generate an inhibitor dose-response curve (IC50) or an agonist dose-response curve (EC50), and statistical significance was determined using a one-way ANOVA with GraphPad Prism 10.

Regarding `Cc1ncc(COP(=O)(O)O)c(C=O)c1O` [PLP], the Vmax is 110.84 [123.30, 100.65] nmol/min/mg in assay [1] (hemin 0 μM); 91.16 [97.56, 85.54] nmol/min/mg in assay [1] (hemin 10 μM); 58.17 [67.25, 51.28] nmol/min/mg in assay [1] (hemin 25 μM); 45.96 [99.50, 29.88] nmol/min/mg in assay [1] (hemin 50 μM); 27.29 [41.39, 20.36] nmol/min/mg in assay [1] (hemin 100 μM). Moreover, the Km in assay [1] (hemin 0 μM) came out at 0.86 µM; in assay [1] (hemin 10 μM), 3.36 µM; in assay [1] (hemin 25 μM) it was 4.78 µM; in assay [1] (hemin 50 μM) it was 11.9 µM; in assay [1] (hemin 100 μM), 9.82 µM. Besides, in assay [1] (WT apoALAS2, PLP titration in the absence of heme), the “activation constant (Ka)” value came out at 0.72 ± 0.08 µM. Moreover, in assay [1] (WT apoALAS2, PLP titration in the presence of 50 μM hemin), the EC50 is 7 ± 1 µM. In addition, the apoenzyme activity restored in assay [1] (WT apoenzyme preincubated with 50 μM heme, excess PLP) is about 50%.

Take ferric chloride heme [hemin]: the mode of inhibition result in assay [1] (WT apoenzyme, varied PLP, various heme concentrations up to 100-fold excess) is “mixed inhibitor”. The “IC50 fold higher than WT” value in assay [2] (ΔN versus WT) is recorded as about 2 fold. Moreover, inhibition in assay [2] (ΔN, 0.1 μM–60 μM hemin titrated into holoenzyme) was half-maximal at 35.8 ± 0.4 µM (IC50).

One may read the Km as the concentration of substrate that gives half-maximal velocity. For orientation: EC50 means the concentration at which the effect is half-maximal. What is called IC50 is the concentration that gives 50% inhibition. A high value points to weaker potency in that assay.

Values taken from PMC12856317, “A reversible feedback mechanism regulating mitochondrial heme synthesis” (The Journal of Biological Chemistry, 2025).
